In patent publication US9833497B2, “Human originated EGF domain proteins and use of the same” (CHENGDU SOURCEBIO LIMITED-LIABILITY COMPANY, priority 2013, dated 2017):

Columns and labels:
Type in all cases: cell-based
Klebsiella pneumonia = assay: MIC against Gram-negative bacteria: Klebsiella pneumonia; conditions: 5×10^5 CFU/mL; for MIC (μg/mL) K. pneumonia / MIC against K. pneumonia: Klebsiella pneumonia; for MIC K. pneumonia: two-fold serial dilution
Summary of the method: (§1)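 Broth microdilution, LB medium, final inoculum 5×10^5 CFU/mL from McFarland 0.5 cultures. Recombinant human EGF domain proteins tested in two-fold steps, n=3. MIC: lowest concentration, no growth.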

E. coli BL21 = assay: MIC against Gram-negative bacteria: E. coli BL21; conditions: 5×10^5 CFU/mL; for MIC E. coli BL21: two-fold serial dilution
Summary of the method: as §1

Moraxella catarrhalis = assay: MIC against Gram-negative bacteria: Moraxella catarrhalis; conditions: 5×10^5 CFU/mL; for MIC (μg/mL) M. catarrhalis / MIC against M. catarrhalis: Moraxella catarrhalis; for MIC M. catarrhalis: two-fold serial dilution
Summary of the method: as §1

Serratia marcescens = assay: MIC against Gram-negative bacteria: Serratia marcescens; conditions: 5×10^5 CFU/mL; for MIC (μg/mL) S. marcescens / MIC against S. marcescens: Serratia marcescens; for MIC S. marcescens: two-fold serial dilution
Summary of the method: as §1

E. coli DH5α = assay: Antibacterial activity: MIC and growth curve against E. coli DH5α in 96-well plate; conditions: minimal inhibitory concentration against E. coli DH5α; 96-well plate, 5×10^5 CFU/mL, 37° C., judged after 8 h
Summary of the method: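 MIC taken as lowest protein level with no bacterial growth, tracked by A600 every 30 min during 37 °C, 175 rpm culture. Two-fold protein series 50-12.5 μg/mL final, triplicate wells, against 5×10^5 CFU/mL of LB-washed mid-log cells.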

Proteus mirabilis = assay: MIC against Gram-negative bacteria: Proteus mirabilis; conditions: 5×10^5 CFU/mL; for MIC (μg/mL) P. mirabilis / MIC against P. mirabilis: Proteus mirabilis; for MIC P. mirabilis: two-fold serial dilution
Summary of the method: as §1

Pseudomonas aeruginosa = assay: MIC against Gram-negative bacteria: Pseudomonas aeruginosa; conditions: 5×10^5 CFU/mL; for MIC (μg/mL) P. aeruginosa / MIC against P. aeruginosa: Pseudomonas aeruginosa; for MIC P. aeruginosa: two-fold serial dilution
Summary of the method: as §1

Aeromonas hydrophila = assay: MIC against Gram-negative bacteria: Aeromonas hydrophila; conditions: 5×10^5 CFU/mL; for MIC (μg/mL) A. hydrophila / MIC against A. hydrophila: Aeromonas hydrophila; for MIC A. hydrophila: two-fold serial dilution
Summary of the method: as §1

Enterobacter cloacae = assay: MIC against Gram-negative bacteria: Enterobacter cloacae; conditions: 5×10^5 CFU/mL; for MIC (μg/mL) E. cloacae / MIC against E. cloacae: Enterobacter cloacae; for MIC E. cloacae: two-fold serial dilution
Summary of the method: as §1

Citrobacter diversus = assay: MIC against Gram-negative bacteria: Citrobacter diversus; conditions: 5×10^5 CFU/mL; for MIC (μg/mL) C. diversus / MIC against C. diversus: Citrobacter diversus; for MIC C. diversus: two-fold serial dilution
Summary of the method: as §1

Proteus vulgaris = assay: MIC against Gram-negative bacteria: Proteus vulgaris; conditions: 5×10^5 CFU/mL; for MIC (μg/mL) P. vulgaris / MIC against P. vulgaris: Proteus vulgaris; for MIC P. vulgaris: two-fold serial dilution
Summary of the method: as §1

Substance: PRT141 (DPCENNPCLHGGTCNANGTMYGCSCDQGFAGENCE; listed as Homo sapiens)
- MIC (μg/mL) K. pneumonia (Klebsiella pneumonia; 96-well plate, 37° C., 10 h): 25 µg/mL
- MIC (μg/mL) E. coli BL21 (E. coli BL21; 96-well plate, 37° C., 10 h): 25 µg/mL
- MIC (μg/mL) M. catarrhalis (Moraxella catarrhalis; 96-well plate, 37° C., 10 h): 12.5 µg/mL
- MIC (μg/mL) S. marcescens (Serratia marcescens; 96-well plate, 37° C., 10 h): 50 µg/mL
- MIC (E. coli DH5α): 12.5 µg/mL
- MIC (μg/mL) P. mirabilis (Proteus mirabilis; 96-well plate, 37° C., 10 h): 50 µg/mL
- MIC (μg/mL) P. aeruginosa (Pseudomonas aeruginosa; 96-well plate, 37° C., 10 h): 12.5 µg/mL
- MIC (μg/mL) A. hydrophila (Aeromonas hydrophila; 96-well plate, 37° C., 10 h): 25 µg/mL
- MIC (μg/mL) E. cloacae (Enterobacter cloacae; 96-well plate, 37° C., 10 h): 12.5 µg/mL
- MIC (μg/mL) C. diversus (Citrobacter diversus; 96-well plate, 37° C., 10 h): 50 µg/mL
- MIC (μg/mL) P. vulgaris (Proteus vulgaris; 96-well plate, 37° C., 10 h): 12.5 µg/mL

Substance: PRT1355 (AELSCPNDCHGQGRCVNGQCVCHEGFMGKDCK; listed as Homo sapiens)
- MIC against K. pneumonia (Klebsiella pneumonia; 10 h cultivation at 37° C.): 25 µg/mL
- MIC against E. coli BL21 (E. coli BL21; 10 h cultivation at 37° C.): 25 µg/mL
- MIC against M. catarrhalis (Moraxella catarrhalis; 10 h cultivation at 37° C.): 12.5 µg/mL
- MIC against S. marcescens (Serratia marcescens; 10 h cultivation at 37° C.): 25 µg/mL
- MIC (E. coli DH5α): 50 µg/mL
- MIC against P. mirabilis (Proteus mirabilis; 10 h cultivation at 37° C.): 25 µg/mL
- MIC against P. aeruginosa (Pseudomonas aeruginosa; 10 h cultivation at 37° C.): 12.5 µg/mL
- MIC against A. hydrophila (Aeromonas hydrophila; 10 h cultivation at 37° C.): 12.5 µg/mL
- MIC against E. cloacae (Enterobacter cloacae; 10 h cultivation at 37° C.): 50 µg/mL
- MIC against C. diversus (Citrobacter diversus; 10 h cultivation at 37° C.): 50 µg/mL
- MIC against P. vulgaris (Proteus vulgaris; 10 h cultivation at 37° C.): 50 µg/mL

Substance: PRT1091 (DVNECSSNPCQNGGTCENLPGNYTCHCPFDNLSRTFYGGRDCS; listed as Homo sapiens)
- MIC K. pneumonia (Klebsiella pneumonia; 10 h cultivation at 37° C.): 25 µg/mL
- MIC E. coli BL21 (E. coli BL21; 10 h cultivation at 37° C.): 50 µg/mL
- MIC M. catarrhalis (Moraxella catarrhalis; 10 h cultivation at 37° C.): 25 µg/mL
- MIC S. marcescens (Serratia marcescens; 10 h cultivation at 37° C.): 12.5 µg/mL
- MIC (E. coli DH5α): 12.5 µg/mL
- MIC P. mirabilis (Proteus mirabilis; 10 h cultivation at 37° C.): 50 µg/mL
- MIC P. aeruginosa (Pseudomonas aeruginosa; 10 h cultivation at 37° C.): 12.5 µg/mL
- MIC A. hydrophila (Aeromonas hydrophila; 10 h cultivation at 37° C.): 25 µg/mL
- MIC E. cloacae (Enterobacter cloacae; 10 h cultivation at 37° C.): 50 µg/mL
- MIC C. diversus (Citrobacter diversus; 10 h cultivation at 37° C.): 12.5 µg/mL
- MIC P. vulgaris (Proteus vulgaris; 10 h cultivation at 37° C.): 25 µg/mL

Substance: PRT1259 (CAVNNGGCDRTCKDTATGVRCSCPVGFTLQPDGKTC; listed as Homo sapiens)
- MIC against K. pneumonia (Klebsiella pneumonia; 96-well plate, 37° C., 10 h): 12.5 µg/mL
- MIC against E. coli BL21 (E. coli BL21; 96-well plate, 37° C., 10 h): 50 µg/mL
- MIC against M. catarrhalis (Moraxella catarrhalis; 96-well plate, 37° C., 10 h): 50 µg/mL
- MIC against S. marcescens (Serratia marcescens; 96-well plate, 37° C., 10 h): 12.5 µg/mL
- MIC (E. coli DH5α): 25 µg/mL
- MIC against P. mirabilis (Proteus mirabilis; 96-well plate, 37° C., 10 h): 12.5 µg/mL
- MIC against P. aeruginosa (Pseudomonas aeruginosa; 96-well plate, 37° C., 10 h): 25 µg/mL
- MIC against A. hydrophila (Aeromonas hydrophila; 96-well plate, 37° C., 10 h): 50 µg/mL
- MIC against E. cloacae (Enterobacter cloacae; 96-well plate, 37° C., 10 h): 25 µg/mL
- MIC against C. diversus (Citrobacter diversus; 96-well plate, 37° C., 10 h): 12.5 µg/mL
- MIC against P. vulgaris (Proteus vulgaris; 96-well plate, 37° C., 10 h): 50 µg/mL

Substance: PRT70 (VDDPCTSSPCPPNSRCHDAWEDYSCVCDKGYLGINC; listed as Homo sapiens)
- MIC (μg/mL) K. pneumonia (Klebsiella pneumonia; 96-well plate, 37° C., 10 h): 25 µg/mL
- MIC (μg/mL) E. coli BL21 (E. coli BL21; 96-well plate, 37° C., 10 h): 12.5 µg/mL
- MIC (μg/mL) M. catarrhalis (Moraxella catarrhalis; 96-well plate, 37° C., 10 h): 12.5 µg/mL
- MIC (μg/mL) S. marcescens (Serratia marcescens; 96-well plate, 37° C., 10 h): 25 µg/mL
- MIC (E. coli DH5α): 12.5 µg/mL
- MIC (μg/mL) P. mirabilis (Proteus mirabilis; 96-well plate, 37° C., 10 h): 50 µg/mL
- MIC (μg/mL) P. aeruginosa (Pseudomonas aeruginosa; 96-well plate, 37° C., 10 h): 12.5 µg/mL
- MIC (μg/mL) A. hydrophila (Aeromonas hydrophila; 96-well plate, 37° C., 10 h): 25 µg/mL
- MIC (μg/mL) E. cloacae (Enterobacter cloacae; 96-well plate, 37° C., 10 h): 12.5 µg/mL
- MIC (μg/mL) C. diversus (Citrobacter diversus; 96-well plate, 37° C., 10 h): 12.5 µg/mL
- MIC (μg/mL) P. vulgaris (Proteus vulgaris; 96-well plate, 37° C., 10 h): 12.5 µg/mL

Substance: PRT1063 (ELSPCRINNGGCQDLCLLTHQGHVNCSCRGGRILQDDLTCR; listed as Homo sapiens)
- MIC K. pneumonia (Klebsiella pneumonia; 10 h cultivation at 37° C.): 25 µg/mL
- MIC E. coli BL21 (E. coli BL21; 10 h cultivation at 37° C.): 25 µg/mL
- MIC M. catarrhalis (Moraxella catarrhalis; 10 h cultivation at 37° C.): 50 µg/mL
- MIC S. marcescens (Serratia marcescens; 10 h cultivation at 37° C.): 12.5 µg/mL
- MIC (E. coli DH5α): 12.5 µg/mL
- MIC P. mirabilis (Proteus mirabilis; 10 h cultivation at 37° C.): 25 µg/mL
- MIC P. aeruginosa (Pseudomonas aeruginosa; 10 h cultivation at 37° C.): 50 µg/mL
- MIC A. hydrophila (Aeromonas hydrophila; 10 h cultivation at 37° C.): 50 µg/mL
- MIC E. cloacae (Enterobacter cloacae; 10 h cultivation at 37° C.): 12.5 µg/mL
- MIC C. diversus (Citrobacter diversus; 10 h cultivation at 37° C.): 12.5 µg/mL
- MIC P. vulgaris (Proteus vulgaris; 10 h cultivation at 37° C.): 25 µg/mL
